Where two headings read alike, the source gives them in different places.
Key:
TYK2 = TYK2 (Homo sapiens (Human), UniProt P29597); assay: TYK2 Radioactive Kinase Assay; format: biochemical; conditions: read-out: TYK2 (% Inhibition at 10 μM)
JAK2 = JAK2 (Homo sapiens (Human), UniProt O60674); assay: JAK2 Radioactive Kinase Assay; format: biochemical; conditions: for inhibition at 10 µM: read-out: JAK2 (% Inhibition at 10 μM)
Protocol: Peptide substrate, [[…]], (20 μM) was prepared in reaction buffer (20 mM Hepes pH 7.5, 10 mM MgCl2, 1 mM EGTA, 0.02% Brij35, 0.02 mg/mL BSA, 0.1 mM […], 2 mM DTT, 1% DMSO. TYK2 (Invitrogen) kinase was added, followed by compounds in DMSO. 33PATP was added to initiate the reaction in ATP at […]. Kinase reaction was incubated for 120 min at room temp and reactions were spotted onto P^81 ion exchange paper (Whatman #3698-915), and then washed extensively in 0.75% phosphoric acid, prior to reading the radioactivity counts. For JAK2 (Invitrogen) kinase assay the peptide substrate poly[Glu:Tyr] (4:1), 0.2 mg/mL was used, in the reaction carried out the same as for TYK2.

[1] = molecular target: human TYK2 (JH2domain-pseudokinase) (Homo sapiens (Human), UniProt P29597); assay: TYK2 JH2 Domain Binding Assay (KINOMEscan); conditions: 11-point 3-fold dilution, top concentration 30,000 nM, duplicate; read-out: hTYK2_JH2_Binding (Kd; nM)
Chain of human TYK2 (JH2domain-pseudokinase) (P29597 556-888): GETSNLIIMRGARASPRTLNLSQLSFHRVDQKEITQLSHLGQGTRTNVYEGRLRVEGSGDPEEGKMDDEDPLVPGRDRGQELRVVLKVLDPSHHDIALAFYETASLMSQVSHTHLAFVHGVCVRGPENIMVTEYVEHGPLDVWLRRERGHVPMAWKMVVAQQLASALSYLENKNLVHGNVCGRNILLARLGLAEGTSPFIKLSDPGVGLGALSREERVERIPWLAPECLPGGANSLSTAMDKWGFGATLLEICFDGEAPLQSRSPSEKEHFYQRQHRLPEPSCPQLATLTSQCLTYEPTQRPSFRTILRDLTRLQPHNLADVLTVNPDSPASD
Outline: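 KINOMEscan competition binding: HEK293-expressed NFkB-fused TYK2 JH2 (G556–D888), DNA-tagged, against immobilized ligand beads, 1 h shaking at room temperature, 0.9% DMSO. Bound kinase quantified by qPCR.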

[2] = system: IL-12 induced STAT4 phosphorlyation mediated by TYK2/JAK2; assay: IL-12 Induced pSTAT4 in Human PBMC; format: cell-based; conditions: 1.7 ng/mL IL-12 for 30 minutes
Outline: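 pSTAT4 and total STAT4 quantified by MSD in lysates of cryopreserved human PBMC after 30-minute stimulation with 1.7 ng/mL IL-12 (final). Compound was added 1 hr beforehand at 37° C, 0.1% DMSO final.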

[3] = compound at 10 μM, peptide substrate […]
[4] = compound at 10 μM, substrate poly[Glu:Tyr] (4:1)

Chain of TYK2 (P29597 whole entry): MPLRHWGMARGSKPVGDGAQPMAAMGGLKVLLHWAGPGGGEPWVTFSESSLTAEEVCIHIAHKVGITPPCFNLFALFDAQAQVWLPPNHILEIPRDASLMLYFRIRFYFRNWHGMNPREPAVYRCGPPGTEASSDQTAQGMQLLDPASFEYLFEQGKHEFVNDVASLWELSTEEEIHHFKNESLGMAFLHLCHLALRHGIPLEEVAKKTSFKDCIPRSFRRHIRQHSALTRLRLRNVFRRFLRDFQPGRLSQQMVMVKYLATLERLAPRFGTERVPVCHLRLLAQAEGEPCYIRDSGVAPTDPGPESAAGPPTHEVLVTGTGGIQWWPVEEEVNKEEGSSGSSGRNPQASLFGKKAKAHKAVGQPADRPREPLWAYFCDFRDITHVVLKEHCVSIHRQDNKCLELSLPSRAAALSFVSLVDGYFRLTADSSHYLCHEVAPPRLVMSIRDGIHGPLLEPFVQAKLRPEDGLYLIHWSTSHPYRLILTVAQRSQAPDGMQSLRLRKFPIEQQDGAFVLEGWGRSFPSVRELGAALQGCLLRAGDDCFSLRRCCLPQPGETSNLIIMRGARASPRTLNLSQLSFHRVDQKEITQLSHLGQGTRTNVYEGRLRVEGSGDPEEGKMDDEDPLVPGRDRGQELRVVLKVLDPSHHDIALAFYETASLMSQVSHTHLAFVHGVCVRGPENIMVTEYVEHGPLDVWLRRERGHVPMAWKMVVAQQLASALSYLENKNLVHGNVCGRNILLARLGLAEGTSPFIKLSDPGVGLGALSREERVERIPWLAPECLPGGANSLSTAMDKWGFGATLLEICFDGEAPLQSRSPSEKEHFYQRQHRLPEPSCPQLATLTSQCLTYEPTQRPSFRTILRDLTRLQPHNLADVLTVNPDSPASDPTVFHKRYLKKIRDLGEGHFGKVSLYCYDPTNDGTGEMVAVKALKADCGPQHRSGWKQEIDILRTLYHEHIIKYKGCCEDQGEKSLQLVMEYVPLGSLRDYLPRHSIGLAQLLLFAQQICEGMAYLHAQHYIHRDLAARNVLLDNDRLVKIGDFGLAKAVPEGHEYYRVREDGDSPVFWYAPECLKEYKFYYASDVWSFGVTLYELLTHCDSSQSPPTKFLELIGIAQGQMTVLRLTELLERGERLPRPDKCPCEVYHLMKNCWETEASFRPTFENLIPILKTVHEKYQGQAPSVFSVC
Chain of JAK2 (O60674 whole entry): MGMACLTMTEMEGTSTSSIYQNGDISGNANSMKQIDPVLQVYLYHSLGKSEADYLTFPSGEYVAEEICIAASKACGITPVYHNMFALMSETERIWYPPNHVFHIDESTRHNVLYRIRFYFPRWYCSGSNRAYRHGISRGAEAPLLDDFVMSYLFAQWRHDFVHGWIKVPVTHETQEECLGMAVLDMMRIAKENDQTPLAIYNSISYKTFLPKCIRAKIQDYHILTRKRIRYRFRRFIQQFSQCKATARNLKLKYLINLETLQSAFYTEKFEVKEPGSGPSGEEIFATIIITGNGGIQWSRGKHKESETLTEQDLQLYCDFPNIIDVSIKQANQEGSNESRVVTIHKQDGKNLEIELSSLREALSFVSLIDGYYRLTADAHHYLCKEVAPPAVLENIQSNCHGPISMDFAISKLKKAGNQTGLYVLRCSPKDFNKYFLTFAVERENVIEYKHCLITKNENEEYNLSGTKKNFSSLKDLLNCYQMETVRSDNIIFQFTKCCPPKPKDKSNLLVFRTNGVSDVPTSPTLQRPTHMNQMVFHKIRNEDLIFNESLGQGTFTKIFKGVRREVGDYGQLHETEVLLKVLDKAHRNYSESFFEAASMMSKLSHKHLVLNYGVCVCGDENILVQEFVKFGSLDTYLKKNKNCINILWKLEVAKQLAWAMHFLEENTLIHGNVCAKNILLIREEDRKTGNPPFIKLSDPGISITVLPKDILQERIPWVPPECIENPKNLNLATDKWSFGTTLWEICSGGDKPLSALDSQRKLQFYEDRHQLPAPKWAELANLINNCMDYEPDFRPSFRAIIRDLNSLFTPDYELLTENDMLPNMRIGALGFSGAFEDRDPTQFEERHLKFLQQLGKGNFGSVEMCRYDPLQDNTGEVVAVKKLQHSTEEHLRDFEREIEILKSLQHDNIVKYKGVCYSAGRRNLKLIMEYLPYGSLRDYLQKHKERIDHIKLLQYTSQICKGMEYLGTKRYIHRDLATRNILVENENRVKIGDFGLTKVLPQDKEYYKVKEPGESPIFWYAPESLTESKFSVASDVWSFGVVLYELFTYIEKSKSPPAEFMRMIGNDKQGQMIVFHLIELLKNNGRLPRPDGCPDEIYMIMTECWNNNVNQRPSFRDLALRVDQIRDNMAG

Compound | inhibition at 10 µM (TYK2; [3]) [%] | inhibition at 10 µM (JAK2; [4]) [%] | Kd [1] [nM] | further results
CNc1cc(Nc2cccn(C3CC(F)(F)C3)c2=O)nc2c(C(=O)N[C@@H]3COC[C@@H]3O)cnn12 [Compound I-59, 5-((1-(3,3-Difluorocyclobutyl)-2-oxo-1,2-dihydropyridin-3-yl)amino)-N-((3R,4R)-4-hydroxytetrahydrofuran-3-yl)-7-(methylamino)pyrazolo[1,5-a]pyrimidine-3-carboxamide] | < 50 | < 50 | 1 to 10 | 
CNc1cc(Nc2cccn(C3CCC[C@@](C)(O)C3)c2=O)nc2c(C(=O)N[C@@H]3C[C@@H]3F)cnn12 (stereo partly drawn) [Compound I-6, N-((1R,2S)-2-Fluorocyclopropyl)-5-((1-(3-hydroxy-3-methylcyclohexyl)-2-oxo-1,2-dihydropyridin-3-yl)amino)-7-(methylamino)pyrazol[1,5-a]pyrimidine-3-carboxamide] | < 50 | < 50 |  | 
CNc1cc(Nc2cccn([C@H]3CC[C@H](OC)CC3)c2=O)nc2c(C(=O)N[C@H]3CC[C@H](OC)C3)cnn12 [Compound I-70, 5-((1-((1 r,4S)-4-Methoxycyclohexyl)-2-oxo-1,2-dihydropyridin-3-yl)amino)-N-((1S,3S)-3-methoxycyclopentyl)-7-(methylamino)pyrazolo[1,5-a]pyrimidine-3-carboxamide] |  |  |  | JAK2 (% Inhibition at 10 μM) (JAK2; [4]): A (percent inhibition at 10 μM lower than 50)
CNc1cc(Nc2cccn([C@H]3CC[C@H](OC)CC3)c2=O)nc2c(C(=O)N[C@@H]3CC[C@@H](OC)C3)cnn12 [Compound I-69, 5-((1-((1r,4R)-4-Methoxycyclohexyl)-2-oxo-1,2-dihydropyridin-3-yl)amino)-N-((1R,3R)-3-methoxycyclopentyl)-7-(methylamino)pyrazolo[1,5-a]pyrimidine-3-carboxamide] |  |  |  | JAK2 (% Inhibition at 10 μM) (JAK2; [4]): A (percent inhibition at 10 μM lower than 50)
CNc1cc(Nc2cccn([C@H]3C[C@H](F)C3)c2=O)nc2c(C(=O)NC3CC[C@@H]3OC)cnn12 (stereo partly drawn) [Compound I-46, 5-((1-((1r,3S)-3-Fluorocyclobutyl)-2-oxo-1,2-dihydropyridin-3-yl)amino)-N-((trans-1,2)-2-methoxycyclobutyl)-7-(methylamino)pyrazolo[1,5-a]pyrimidine-3-carboxamide] |  |  |  | inhibition at 10 µM (TYK2): < 50%; inhibition at 10 µM (JAK2): < 50%; IC50 ([2]; 0.5 h): < 0.1 µM
CNc1cc(Nc2cccn([C@H]3CC[C@H](OC)CC3)c2=O)nc2c(C(=O)N[C@@H]3C[C@H]3OC)cnn12 [Compound I-31, 5-((1-((1r,4R)-4-Methoxycyclohexyl)-2-oxo-1,2-dihydropyridin-3-yl)amino)-N-((1R,2R)-2-methoxycyclopropyl)-7-(methylamino)pyrazolo[1,5-a]pyrimidine-3-carboxamide] |  |  | < 0.2 | IC50 [2]: < 0.1 µM
CC(C)n1cccc(Nc2nc3c(C(=O)NC4CCC4(F)F)cnn3c3c2OCCN3)c1=O (stereo not shown) [Compound I-765] |  |  | < 0.2 | IC50 [2]: < 0.1 µM

Now from value to compound, other results behind:

inhibition at 10 µM (TYK2; [3]) [%] | inhibition at 10 µM (JAK2; [4]) [%] | Kd [1] [nM] | Compound | further results
< 50 | < 50 |  | CNc1cc(Nc2cccn(-c3ccccn3)c2=O)nc2c(C(=O)N[C@@H]3CC[C@@H](OC)C3)cnn12 [Compound I-67, N-((1R,3R)-3-Methoxycyclopentyl)-7-(methylamino)-5-((2-oxo-2H-[1,2′-bipyridin]-3-yl)amino)pyrazolo[1,5-a]pyrimidine-3-carboxamide] | 
< 50 | < 50 | 0.2 to 1 | CNc1cc(Nc2cccn(C3CC(F)(F)C3)c2=O)nc2c(C(=O)N[C@@H]3CC[C@H](O)C3)cnn12 [Compound I-36, 5-((1-(3,3-Difluorocyclobutyl)-2-oxo-1,2-dihydropyridin-3-yl)amino)-N-((1R,3S)-3-hydroxycyclopentyl)-7-(methylamino)pyrazolo[1,5-a]pyrimidine-3-carboxamide] | 
< 50 | < 50 | 0.2 to 1 | CNc1cc(Nc2cccn(C3CC(F)(F)C3)c2=O)nc2c(C(=O)N[C@H]3COC[C@H]3O)cnn12 [Compound I-58, 5-((1-(3,3-Difluorocyclobutyl)-2-oxo-1,2-dihydropyridin-3-yl)amino)-N-((3S,4S)-4-hydroxytetrahydrofuran-3-yl)-7-(methylamino)pyrazolo[1,5-a]pyrimidine-3-carboxamide] | 
< 50 | < 50 | 1 to 10 | CNc1cc(Nc2cccn([C@@H]3CCOC[C@@H]3OC)c2=O)nc2c(-c3cn(C(C)C)nn3)cnn12 [Compound I-116, 3-((3-(1-Isopropyl-1H-1,2,3-triazol-4-yl)-7-(methylamino)pyrazolo[1,5-a]pyrimidin-5-yl)amino)-1-((3R,4R)-3-methoxytetrahydro-2H-pyran-4-yl)pyridin-2(1H)-one] | 
< 50 | < 50 |  | CNc1cc(Nc2cccn(C3CC(F)(F)C3)c2=O)nc2c(C(=O)NC3C[C@H]3OC)cnn12 (stereo partly drawn) [Compound I-33, 5-((1-(3,3-Difluorocyclobutyl)-2-oxo-1,2-dihydropyridin-3-yl)amino)-N-((trans-1,2)-2-methoxycyclopropyl)-7-(methylamino)pyrazolo[1,5-a]pyrimidine-3-carboxamide] | IC50 ([2]; 0.5 h): < 0.1 µM
< 50 | < 50 |  | CNc1cc(Nc2cccn([C@H]3[C@@H]4COC[C@@H]43)c2=O)nc2c(C(=O)NC3C[C@H]3OC)cnn12 (mixture of isomers) [Compound I-24, 5-((1-((1R,5S,6r)-3-Oxabicyclo[3.1.0]hexan-6-yl)-2-oxo-1,2-dihydropyridin-3-yl)amino)-N-(2-methoxycyclopropyl)-7-(methylamino)pyrazolo[1,5-a]pyrimidine-3-carboxamide] | IC50 ([2]; 0.5 h): < 0.1 µM
< 50 | < 50 |  | CNc1cc(Nc2cccn([C@H]3C[C@H](F)C3)c2=O)nc2c(C(=O)NC3CC[C@@H](OC)C3)cnn12 (mixture of isomers) [Compound I-66, 5-((1-((1r,3R)-3-Fluorocyclobutyl)-2-oxo-1,2-dihydropyridin-3-yl)amino)-N-(3-methoxycyclopentyl)-7-(methylamino)pyrazolo[1,5-a]pyrimidine-3-carboxamide] | 
< 50 | < 50 |  | CNc1cc(Nc2cccn(C3CC(F)(F)C3)c2=O)nc2c(C(=O)N[C@@H]3CCC[C@@H](O)C3)cnn12 [Compound I-62, 5-((1-(3,3-Difluorocyclobutyl)-2-oxo-1,2-dihydropyridin-3-yl)amino)-N-((1R,3R)-3-hydroxycyclohexyl)-7-(methylamino)pyrazolo[1,5-a]pyrimidine-3-carboxamide] | 
< 50 | < 50 |  | CNc1cc(Nc2cccn([C@H]3C[C@H](F)C3)c2=O)nc2c(C(=O)N[C@@H]3C[C@@H]3F)cnn12 [Compound I-7, 5-((1-((1r,3R)-3-Fluorocyclobutyl)-2-oxo-1,2-dihydropyridin-3-yl)amino)-N-((1R,2S)-2-fluorocyclopropyl)-7-(methylamino)pyrazolo[1,5-a]pyrimidine-3-carboxamide] | IC50 ([2]; 0.5 h): < 0.1 µM
< 50 | < 50 |  | CNc1cc(Nc2cccn(C3CC(F)(F)C3)c2=O)nc2c(C(=O)N[C@H]3CCC[C@H](O)C3)cnn12 [Compound I-63, 5-((1-(3,3-Difluorocyclobutyl)-2-oxo-1,2-dihydropyridin-3-yl)amino)-N-((1S,3S)-3-hydroxycyclohexyl)-7-(methylamino)pyrazolo[1,5-a]pyrimidine-3-carboxamide] | 

Source: patent US11414431B2, “Substituted pyrazolo[1,5-a]pyrimidines as TYK2 inhibitors” (Nimbus Lakshmi, Inc., priority 2018, dated 2022)
